The results in this text go back to patent US10266510B2, “Antimicrobial and cytotoxic compounds and methods for treating cancer, a bacterial infection, and/or a fungal infection” (King Abdulaziz University, priority 2017, dated 2019).

≈ marks a conversion by molar mass, not a printed value.

Data set [1] concerns MCF7 (human breast cancer cell line). As to the kind of experiment: Tumor cell growth assay (sulforhodamine B), MCF7. The following applies: for Remarks (% at 100 ppm): 48 h; for Inhibitory effect on in vitro growth (in words): 48 h exposure; for LC90: death of 90% of cells in 48 hrs. Format: cell-based. An excerpt: (§1) Reagents: Fetal bovine serum (FBS) and L-glutamine were purchased from Gibco Invitrogen Co. (Scotland, UK). RPMI-1640 medium was from Cambrex (New Jersey, USA). Dimethyl sulfoxide (DMSO), doxorubicin, penicillin, streptomycin and sulforhodamine B (SRB) were from Sigma Chemical Co. (Saint Louis, USA).
(§2) Cell cultures: Three human tumor cell lines, HCT116 (colon cell line), HePG 2 (human hepatocellular carcinoma cell line), and MCF7 (human breast adenocarcinoma) were used. In vitro bioassay on human tumor cell lines were conducted and determined by the Bioassay-Cell Culture Laboratory, National Research Centre, El-Tahrir St., Dokki, Cairo 12622, Egypt. They grew as a monolayer and are routinely maintained in RPMI-1640 medium supplemented with 5% heat-inactivated FBS, 2 mM glutamine and antibiotics (penicillin 100 U/mL, streptomycin 100 μg/mL), at 37° C. in a humidified atmosphere containing 5% CO2. Exponentially growing cells were obtained by plating 1.5×10^5 cells/mL for MCF-7 and HCT116 and 0.75×10^4 cells/mL for HePG2, followed by 24 h of incubation. The effect of the vehicle solvent (DMSO) on the growth of these cell lines was evaluated in all experiments by exposing untreated control cells to the maximum concentration (0.5%) of DMSO used in each assay.
(§3) Tumor cell growth assay: The effect on the in vitro growth of human tumor cell lines was evaluated according to the procedure adopted by the National Cancer Institute (NCI, USA) in the ‘In vitro Anticancer Drug Discovery Screen’ that uses the protein-binding dye sulforhodamine B to assess cell growth. Briefly, cells growing in 96-well plates were then exposed for 48 h to five serial concentrations of each compound, starting from a maximum concentration of 78 μM (P. Skehan, R. Storeng, D. Scudiero, A. Monks, J. McMahon, D. Vistica, J. T. Warren, H. Bokesch, S. Kenney, M. R. Boyd, J. Natl. Cancer Inst., 82, 1107 (1990), incorporated herein by reference in its entirety). Following this exposure period adherent cells were fixed, washed, and stained. The bound stain was solubilized and the absorbance was measured at 492 nm in a plate reader (Bio-Tek Instruments Inc., Power wave XS, Wincoski, USA). For each test compound and cell line, a dose-response curve was obtained and the growth inhibition of 50% (GI50), corresponding to the concentration of the compounds that inhibited 50% of the net cell growth, was calculated as described elsewhere (A. Monks, D. Scudiero, P. Skehan, R. Shoemaker, K. Paull, D. Vistica, C. Hose, J. Langley, P. Cronise, A. Vaigro-Wolff, M. Gray-Goodrich, H. Campbell, J. Mayo, M. J. Boyd, Natl. Cancer Inst., 83, 757 (1991), incorporated herein by reference in its entirety). Doxorubicin was used as a positive control and tested in the same manner.

Data set [2] deals with HePG 2 (human hepatocellular cancer cell line). Put plainly: Tumor cell growth assay (sulforhodamine B), HePG 2. Format: cell-based. The following applies: for Remarks (% at 100 ppm): 48 h; for Inhibitory effect on in vitro growth (in words): 48 h exposure.
From the text: as §1, §2, §3

Data set [3] deals with Aspergillus niger NRRL 2766. As to the kind of experiment: MIC by agar well diffusion method. It counts as cell-based. Conditions: 25° C., 48 h, dilutions 50 to 500 μg/mL; for MIC: Aspergillus niger, NRRL2766. An excerpt: (§4) The common pathogenic and food spoilage microorganisms were selected for their relevance in bakery products and other food: the gram-positive bacteria: Bacillus subtilits NRRL-B-4219, Staphylococcus aureus ATCC 6538, Enterococcus faecalis ATCC 19433; the gram negative bacteria: Escherichia coli ATCC 25922, Pseudomonas aeruginosa ATCC 9027, Proteus sp.; yeasts, such as Candida albicans ATCC 10231; and fungi: Aspergillus niger NRRL 2766 (equivalent to ATCC 16888), and Aspergillus flavus ATCC 16883. The bacteria were slanted on nutrient agar (Merck, Darmstadt, Germany), yeast was slanted and mentioned on Sabaroud's agar medium (Lab M., Bury, Lancashire, UK) and the fungi was slanted and mentioned on the potato Dextrose Agar medium (Lab M Limited, Bury, Lancashire, UK). Mueller-Hinton agar (Lab M., Bury, Lancashire, UK) following the manufacturer's instructions was used for the assay. The in vitro minimum inhibitory concentration (MIC) of the synthesized compounds was determined by the agar well diffusion method. DMSO was used to prepare different concentrations ranging from 50 to 500 μg/mL by serial dilutions. The media were inoculated with 100 μL of each of the 10^6 cfu/mL bacterial and fungal strains, and the assay was applied by an agar well diffusion method. Blank DMSO was used as negative control. The plates were incubated aerobically in an incubator at 37° C. for 24 h for bacterial strains and 25° C. for 48 h for fungal strains. The MIC was taken as the lowest concentration in the series dilution that prevented bacterial growth.
(In agar diffusion tests the substance spreads into inoculated agar from a disc or well.)

The test system of data set [4] is Candida albicans ATCC 10231. Put plainly: MIC by agar well diffusion method. Format: cell-based. The following applies: 25° C., 48 h, dilutions 50 to 500 μg/mL; for MIC: Candida albicans, ATCC10231.
From the text: as §4

Data set [5] deals with Pseudomonas aeruginosa ATCC 9027. Put plainly: MIC by agar well diffusion method. It counts as cell-based. The following applies: 37° C., 24 h, dilutions 50 to 500 μg/mL; for MIC: Pseudomonas aeruginosa, ATCC9027, read-out: MIC, P. aeruginosa.
From the text: as §4

The subject of data set [6] is Escherichia coli ATCC 25922. Put plainly: MIC by agar well diffusion method. Format: cell-based. Conditions: 37° C., 24 h, dilutions 50 to 500 μg/mL; for MIC: Escherichia coli, ATCC25922.
From the text: as §4

A further data set relates to Proteus sp. Put plainly: MIC by agar well diffusion method. Format: cell-based. Conditions: 37° C., 24 h; dilutions 50 to 500 μg/mL.
From the text: as §4

For data set [7], the system named is Staphylococcus aureus ATCC 6538. As to the kind of experiment: MIC by agar well diffusion method. Conditions: 37° C., 24 h, dilutions 50 to 500 μg/mL; for MIC: Staphylococcus aureus, ATCC6538, read-out: MIC, S. aureus. It counts as cell-based.
From the text: as §4

For data set [8], the system named is Enterococcus faecalis ATCC 19433. As to the kind of experiment: MIC by agar well diffusion method. It counts as cell-based. Conditions: 37° C., 24 h, dilutions 50 to 500 μg/mL; for MIC: Enterococcus faecalis, ATCC19433, read-out: MIC, Ent. faecalis.
From the text: as §4

In data set [9] the test system is HCT116 (colon cancer cell line). As to the kind of experiment: Tumor cell growth assay (sulforhodamine B), HCT116. Format: cell-based. Conditions: for Remarks (% at 100 ppm): 48 h; for Inhibitory effect on in vitro growth (in words): 48 h exposure; for LC90: death of 90% of cells in 48 hrs.
From the text: as §1, §2, §3

As usually defined, the MIC is the lowest concentration found to suppress growth. Broadly, the melting point is the temperature of the solid-liquid transition. In general, LC50 refers to the concentration that kills 50% of the test population.

With `CCOC1Oc2ccccc2C(=O)C1=NNc1ccccc1OC` (stereo not shown) [Compound 6b, 2-ethoxy-3-(2-(2-methoxyphenyl)hydrazono)chroman-4-one], the melting point was 158 °C. In addition, the “Remarks (% at 100 ppm)” value in [1] was found to be 22.9% at 100 ppm. In addition, in [2], the “Remarks (% at 100 ppm)” value is 56.1% at 100 ppm. The lowest concentration to inhibit growth in [3] (MIC) was 300 µg/mL (≈ 919 µM). In data set [4], this compound showed an MIC of 400 µg/mL (≈ 1230 µM). In data set [5], the MIC worked out at 400 µg/mL (≈ 1230 µM). Besides, the MIC in [6] came to 250 µg/mL (≈ 766 µM). The compound also came in with an MIC against Proteus sp. of 350 µg/mL (≈ 1070 µM). Moreover, in data set [7], the MIC came to 300 µg/mL (≈ 919 µM). Also, the MIC in data set [8] worked out at 450 µg/mL (≈ 1380 µM). Moreover, the “Remarks (% at 100 ppm)” value in data set [9] worked out at 39.6% at 100 ppm.
As for `CCOC1Oc2ccccc2C(=O)C1=NNc1ccc(Cl)cc1` (stereo not shown) [Compound 6c, 3-[(4-Chlorophenyl)hydrazono]-2-ethoxychroman-4-one], the “Inhibitory effect on in vitro growth (in words)” value in data set [1], in data set [2] and in data set [9] was “highest inhibitory effect” throughout. In addition, the LC50 (concentration killing 50% of cells) in data set [1] (Homo sapiens, death of 50% of cells in 48 hrs) is 15.8 µg/mL; in data set [2] (Homo sapiens, HepG2, death of 50% of cells in 48 hrs), 39 µg/mL. Also, the “Remarks (% at 100 ppm)” value in data set [1] is given as 100% at 100 ppm; in data set [2] it was 94.2% at 100 ppm; in data set [9] it was 100% at 100 ppm. Moreover, the LC90 in data set [1] worked out at 27.0 µg/mL (≈ 81.6 µM); in [2] (death of 90% of cells in 48 hrs) it was 68.9 µg/mL (≈ 208 µM); in data set [9], 23.1 µg/mL (≈ 69.8 µM). Further, the MIC was determined as 100 µg/mL (≈ 302 µM) in data set [3]; 50 µg/mL (≈ 151 µM) in data set [4]; 150 µg/mL (≈ 453 µM) in data set [5]; 50 µg/mL (≈ 151 µM) in data set [6]; 150 µg/mL (≈ 453 µM) with Proteus sp.; 150 µg/mL (≈ 453 µM) in data set [7]. Besides, the minimum inhibitory concentration (MIC) in data set [8] stood at 200 µg/mL (≈ 605 µM). In data set [9] (Homo sapiens, HCT-116, death of 50% of cells in 48 hrs, read-out: LC50 (the source's name)), the CC50 came out at 13.2 µg/mL (≈ 39.9 µM).
For the compound “Ethoxy-3-[(4-nitro-phenyl)-hydrazono]-chroman-one [Compound 6a]”, the “Inhibitory effect on in vitro growth (in words)” value in [1], in [2] and in data set [9] was “highest inhibitory effect” each time. Moreover, the “Remarks (% at 100 ppm)” value in [1] stood at 61.3% at 100 ppm; in [2] it was 45.3% at 100 ppm; in data set [9], 65.3% at 100 ppm. In addition, the LC50 in [1] (death of 50% of cells in 48 hrs) was found to be 76.3 µg/mL. Further, the figures for the LC90 in [1] and in data set [9] were 124.1 µg/mL and 123.3 µg/mL, respectively. For the same compound, the “MIC, A. niger” value in data set [3] came out at 200 µg/mL. In data set [4], the “MIC, C. albicans” value was found to be 250 µg/mL. Besides, in data set [5], the “MIC, P. aeruginosa” value stood at 300 µg/mL. Besides, the “MIC, E. coli” value in data set [6] turned out to be 100 µg/mL. Moreover, in the data set on Proteus sp., the “MIC, Proteus sp.” value stood at 250 µg/mL. In addition, the “MIC, S. aureus” value in [7] stood at 350 µg/mL. In addition, the “MIC, Ent. faecalis” value in data set [8] was found to be 250 µg/mL.
